Reference: US10995225B2, “Macrocyclic polyphenols for universal coatings” (The Regents of the University of California, priority 2016, dated 2021)

Key:
[1] = Coating stability assay: coated substrates incubated overnight in PBS at 36° C.; assay type: physicochemical
Method: Coating Compositions and Stability Assays. A macrocyclic compound (1 mg/mL) was dissolved in DMSO. To this solution was added to 10 mM to 1.5 M salts in aqueous buffer (pH 4-10). Various substrates were coated by dipping the substrates in the coating mixture (e.g., see FIGS. 12-16) and the stability of the coating compositions were tested by incubating the coated substrates in PBS at 36° C. overnight (e.g., see FIG. 7-16). […] For example, 1 mg/mL of the arene were dissolved in DMSO (10 volume % of the total coating solution). To this solution the buffered aqueous solution containing the salt of choice and the buffer (90% of total coating solution) was added. Then the pH was adjusted using HCl or NaOH solutions. The solution was transferred to a glass vial and the different substrates where added. The vial was sealed and placed on a rocking platform for 24 h. The substrate was rinsed with DI H2O then dried with a N2 flow. Buffers used included Na2CO3 (pH 11), bicine (ph 8-9), bis-tris (pH 6-7), tris (pH 7), sodium acetate (pH 4-5). The Buffer concentration used were between 0.1 and 2.2 M. Salt concentration used were between 0 and 1.5 M.

[2] = Sessile Contact Angle / wettability of coated PDMS; assay type: physicochemical
Method: Sessile Contact Angle: 2 μL drops were placed on planar samples prepared as in the previous section. Contact angles were measured using Ramé-Hart Droplmage analysis software and hardware setup.

optimal pH for coating stability ([1]; 0.2M MgCl2 in Bicine buffer) | optimal salt concentration for coating stability ([1]; CaCl2 in Gly buffer) [M] | optimal salt concentration for coating stability ([1]; MgCl2, pH 8.5, Bicine buffer) [M] | optimal pH for coating stability ([1]; pH screen, MgCl2 salt) | wettability of PDMS [2] | SMILES
8.5 | 0.5 | 0.5 | 8.0 | – | Oc1ccc(C2c3cc(c(O)cc3O)C(c3ccc(O)c(O)c3)c3cc(c(O)cc3O)C(c3ccc(O)c(O)c3)c3cc(c(O)cc3O)C(c3ccc(O)c(O)c3)c3cc2c(O)cc3O)cc1O [D-D macrocycle]
– | – | – | – | increase the wettability of PDMS | Oc1cccc(O)c1O [pyrogallol]
